Reference: patent US20040054130A1, “Insulin potentiating peptides” (priority 2000, published 2004)
Square brackets hold non-standard residues; d marks the D form. Ends that are not written are not given here. Cha = N[C@@H](CC1CCCCC1)C(=O)O; Orn = NCCC[C@H](N)C(=O)O; βAla = NCCC(=O)O

Legend:
[1] = test system: Zucker (fa/fa) rat hemidiaphragm muscle; assay: In vitro glycogen synthesis (glucose incorporation into glycogen) in hemidiaphragm muscle with exogenous insulin; assay type: cell-based; design: key to Activity: insulin-potentiating: improved activity compared to insulin alone; inactive: equal activity compared to insulin alone; insulin antagonist: reduced activity compared to insulin alone; *-**: increasing insulin-potentiating activity; conditions: for insulin-potentiating activity on in vitro glycogen synthesis (in words): with 1 mU/ml exogenous insulin
Procedure: In vitro insulin-potentiating effects of the synthetic peptide analogues were assessed by measuring the rates of exogenous glucose incorporation into glycogen in rat hemidiaphragms (Lim et al, 1992). Hemidiaphragms from overnight-fasted Zucker fatty(fa/fa) female rats were dissected, and divided into segments of approximate 35-50 mg each. Tissues from the same rat were used for all groups. The tissue was incubated in 2 ml of Krebs-Ringer bicarbonate (KRB) buffer (pH 7.4) containing [^14C]glucose (5.5 mM, final specific activity 0.05 mCi/mmol) under an atmosphere of 95% 02-5% CO2 at 37° C. for 1.5 hr. After incubation, tissues were removed, washed with cold buffer and blotted. Tissues were digested, the muscle glycogen was precipitated and the ^14C-radioactivity was counted in a Wallac 1410 liquid scintillation counter. The biological activity of peptide analogues was measured as the rate of mmol glucose incorporation into muscle glycogen/g tissue/hr.
The sensitivity of hemidiaphragm muscle tissue to insulin (0.1-100 mU/ml) on glycogen synthesis was first analyzed. The dose response curves for peptide analogues on the insulin-potentiating effect to glycogen synthesis were then measured using cumulative increasing concentrations (10^−3 10 μmol/ml) of peptides in the presence of insulin (1 mU/ml). The biological activity of each peptide analogue was measured as the rate of glucose incorporation into muscle glycogen (μmol/g tissue/hr), and represented by the mean±SEM from eight determinations.
To determine the insulin-potentiating effect of the peptide analogues, the rates of incorporation of glucose into muscle glycogen were measured. The rates of glycogen synthesis (μmol/g tissue/hr) were 0.52±0.05, 0.60±0.04, 1.27±0.06 and 1.52±0.07 inresponse to 0.33, 1, 3.33 and 10 mU/ml insulin respectively, as shown in FIG. 1.
The insulin-potentiating effect of the peptide analogues was then observed by studying their dose response. curves for glucose incorporation into glycogen in the presence of 1 mU/ml exogenous insulin. The effects of peptides 1, 3, 4, 6, 7, 8 and 10 were evident at doses higher than 0.01 μmol/ml, and continued to increase with increasing peptide concentration to 1 μmol/ml, as shown in FIGS. 2A and 2B.
The activity of each analogue was assessed by in vitro measurement of glycogen synthesis in muscle, as described above.

[2] = test system: Zucker fatty (fa/fa) rats; assay: Basal blood glucose determination after i.p. peptide; assay type: in vivo, rat; conditions: 10 μmol/kg body weight i.p., over 150 min, vs saline
Procedure: Overnight-fasted Zucker fatty(fa/fa) female rats were anaesthetized with sodium pentobarbitone (60 mg/kg body weight). After 45 min, basal blood glucose samples were taken from the tail vein, followed immediately by intraperitoneal (i.p.) injection of saline (control) or the peptide analogue (test, 10 μmol/kg body weight) in 0.4 ml of saline. Blood samples were taken at 15, 30, 60, 90, 120, 150 minutes after injection, and the blood glucose level in each sample was measured immediately by the glucose oxidase method, using a YSI Model-2300 STAT glucose analyzer (Yellow Spring, Ohio). Six animals for each group were used.
The reduction of basal blood glucose levels in animals by different peptide analogues administered intraperitoneally (i.p.)at a dose of 10 μmol/kg body weight was measured for over 150 min.

[3] = test system: normal male Wistar rats; assay: Intravenous insulin tolerance test (IVITT); assay type: in vivo, rat; conditions: 5 μmol/kg i.v.; for insulin-potentiating effect on decreasing blood glucose in IVITT (in words): from 30 min after commencement; for Reduction in Blood Glucose: 0.1 U insulin/kg
Procedure: IVITTs (0.1 U insulin/kg body weight) were performed on overnight-fasted Wistar male rats as previously described (Lim et al, 1992). Blood samples were taken for glucose estimation at 15, 30, 45, 60 min after the commencement of the tests. Six animals in each group were used.
IVITTs were performed on normal male Wistar rats after a single intravenous (i.v.) injection of the hGH peptide analogues at a dose of 5 μmol/kg body weight. The insulin-potentiating effects of peptides 6, 7, 8 and 10 on decreasing blood glucose levels of treated animals became significant since 30 min after the commencement of the test. Bioactivity was retained when the Arg^8 or Phe^10 residue of Asu^11-hGH(6-13) peptide was substituted with Lys or Tyr respectively (1.92±0.17 or 1.62±0.18 vs. 1.65±0.12 mmol/L at 45 min), as shown in Table 3. However, no insulin-potentiating effect was observed when either Arg^8 or Phe^10 was substituted by Gly (0.92±0.08 or 1.08±0.08 mmol/L respectively vs. 1.00±0.10 mmol/L of control at 45 min). Asu^11-hGH(8-13) also elicited this insulin-potentiating effect, but with lower potency.

[4] = Table 5, compared to insulin alone
[5] = Table 6 (corrected), summary of Table 5

Ala-Gly-Phe-Phe (AGFF-NH2) [Peptide 12]
Activity [1, 4]: inactive

Arg-Ala-Phe-Phe-NH2 (RAFF-NH2) [Peptide 13]
Activity [1, 4]: inactive | Activity [1, 5]: inactive

Arg-D-Ala-Phe-Tyr-NH2 (R[dA]FY-NH2; N-terminus assumed; SMILES C[C@@H](NC(=O)[C@@H](N)CCCNC(=N)N)C(=O)N[C@@H](Cc1ccccc1)C(=O)N[C@@H](Cc1ccc(O)cc1)C(N)=O) [Peptide 22]
Activity [1, 5]: active

Arg-D-Ala-Phe-Tyr-me-NH2 (R[dA]FY-NH2; also: 'me' (methyl) after Tyr, site not settled) [Peptide 23]
Activity [1, 5]: active

Arg-D-Ala-Tyr-Phe-NH2 (R[dA]YF-NH2; N-terminus assumed; SMILES C[C@@H](NC(=O)[C@@H](N)CCCNC(=N)N)C(=O)N[C@@H](Cc1ccc(O)cc1)C(=O)N[C@@H](Cc1ccccc1)C(N)=O) [Peptide 24]
Activity [1, 5]: active

Arg-Gly-Ala-Phe-NH2 (RGAF-NH2) [Peptide 14]
Activity [1, 4]: inactive | Activity [1, 5]: inactive

Arg-Gly-Phe-Ala-NH2 (RGFA-NH2) [Peptide 15]
Activity [1, 4]: inactive | Activity [1, 5]: inactive

Arg-Gly-Phe-Cha-NH2 (RGF[Cha]-NH2; N-terminus assumed; SMILES N=C(N)NCCC[C@H](N)C(=O)NCC(=O)N[C@@H](Cc1ccccc1)C(=O)N[C@@H](CC1CCCCC1)C(N)=O) [Peptide 2]
hypoglycaemic effect (reduction of basal blood glucose level) ([2]; listed as Arg-Gly-Phe-Cha): no hypoglycaemic effect | hypoglycaemic effect (reduction of basal blood glucose level) ([2]; listed as peptide 2): significant hypoglycaemic effects | Activity [1, 5]: antagonist

Arg-Gly-Phe-Phe-NH2 (RGFF-NH2) [Peptide 1]
hypoglycaemic effect (reduction of basal blood glucose level) ([2]; listed as Arg-Gly-Phe-Phe): reduced basal blood glucose levels | hypoglycaemic effect (reduction of basal blood glucose level) ([2]; listed as peptide 1): significant hypoglycaemic effects | Activity [1, 5]: active | insulin-potentiating activity on in vitro glycogen synthesis (in words) [1]: stimulated glycogen synthesis

Arg-Gly-Phe-Tyr-NH2 (RGFY-NH2) [Peptide 21]
Activity [1, 4]: inactive | Activity [1, 5]: inactive

Arg-Gly-Tyr-Phe-NH2 (RGYF-NH2) [Peptide 19]
Activity [1, 5]: active

Arg-Leu-Phe-Asp-Asn-Ala (RLFDNA-NH2) [Peptide 5]
hypoglycaemic effect (reduction of basal blood glucose level) [2]: no hypoglycaemic effect | Activity [1, 4]: inactive | insulin-potentiating activity on in vitro glycogen synthesis (in words) [1]: abolished | insulin-potentiating effect on decreasing blood glucose in IVITT (in words) ([3]; listed as Asn^11-hGH(8-13)): no such effect | insulin-potentiating effect on decreasing blood glucose in IVITT (in words) ([3]; listed as linear hGH(8-13)): no activity | Reduction in Blood Glucose ([3]; 15 min): 0.90 ± 0.09 mmol/L | Reduction in Blood Glucose ([3]; 30 min): 1.01 ± 0.11 mmol/L | Reduction in Blood Glucose ([3]; 45 min): 1.07 ± 0.15 mmol/L | Reduction in Blood Glucose ([3]; 60 min): 1.06 ± 0.12 mmol/L

Arg-Leu-Phe-Asu-Asn-Ala (RLFDNA-NH2) [Peptide 6]
hypoglycaemic effect (reduction of basal blood glucose level) [2]: significant hypoglycaemic effects | hypoglycaemic effect (reduction of basal blood glucose level) ([2]; listed as Asu^11-hGH(8-13) amide): diminished insulin-potentiating effect | insulin-potentiating activity on in vitro glycogen synthesis (in words) [1]: diminished insulin-potentiating effect | insulin-potentiating effect on decreasing blood glucose in IVITT (in words) [3]: significant | insulin-potentiating effect on decreasing blood glucose in IVITT (in words) ([3]; listed as Asu^11-hGH(8-13)): lower potency | Reduction in Blood Glucose ([3]; 15 min): 0.93 ± 0.17 mmol/L | Reduction in Blood Glucose ([3]; 30 min): 1.58 ± 0.12 mmol/L | Reduction in Blood Glucose ([3]; 45 min): 1.50 ± 0.15 mmol/L | Reduction in Blood Glucose ([3]; 60 min): 1.50 ± 0.19 mmol/L

Arg-Leu-Phe-Phe-NH2 (RLFF-NH2) [Peptide 4]
Activity [1, 5]: active

Arg-β-Ala-Phe-Phe (R[βAla]FF; not fully specified (C-terminus); printed as Arg-β-Ala-Phe-Phe) [Peptide 18]
Activity [1, 5]: active

Leu-Ser-Arg-Leu-Gly-Asu-Asn-Ala (LSRLGDNA-NH2; not fully specified; printed as Leu-Ser-Arg-Leu-Gly-Asu-Asn-Ala) [Peptide 11]
Activity [1, 4]: inactive | Reduction in Blood Glucose ([3]; 15 min): 0.68 ± 0.05 mmol/L | Reduction in Blood Glucose ([3]; 30 min): 0.96 ± 0.06 mmol/L | Reduction in Blood Glucose ([3]; 45 min): 1.08 ± 0.08 mmol/L | Reduction in Blood Glucose ([3]; 60 min): 1.12 ± 0.06 mmol/L

Leu-Ser-Arg-Leu-Tyr-Asu-Asn-Ala (LSRLYDNA-NH2; not fully specified; printed as Leu-Ser-Arg-Leu-Tyr-Asu-Asn-Ala) [Peptide 10]
insulin-potentiating effect on decreasing blood glucose in IVITT (in words) [3]: significant | Reduction in Blood Glucose ([3]; 15 min): 1.03 ± 0.10 mmol/L | Reduction in Blood Glucose ([3]; 30 min): 1.52 ± 0.12 mmol/L | Reduction in Blood Glucose ([3]; 45 min): 1.62 ± 0.18 mmol/L | Reduction in Blood Glucose ([3]; 60 min): 1.60 ± 0.34 mmol/L

Leu-Ser-Gly-Leu-Phe-Asu-Asn-Ala (LSGLFDNA-NH2; not fully specified; printed as Leu-Ser-Gly-Leu-Phe-Asu-Asn-Ala) [Peptide 9]
Activity [1, 4]: inactive | Reduction in Blood Glucose ([3]; 15 min): 0.87 ± 0.12 mmol/L | Reduction in Blood Glucose ([3]; 30 min): 0.80 ± 0.14 mmol/L | Reduction in Blood Glucose ([3]; 45 min): 0.88 ± 0.15 mmol/L | Reduction in Blood Glucose ([3]; 60 min): 0.74 ± 0.16 mmol/L

Leu-Ser-Lys-Leu-Phe-Asu-Asn-Ala (LSKLFDNA-NH2; not fully specified; printed as Leu-Ser-Lys-Leu-Phe-Asu-Asn-Ala) [Peptide 8]
insulin-potentiating activity on in vitro glycogen synthesis (in words) [1]: active | insulin-potentiating effect on decreasing blood glucose in IVITT (in words) [3]: significant | Reduction in Blood Glucose ([3]; 15 min): 1.08 ± 0.10 mmol/L | Reduction in Blood Glucose ([3]; 30 min): 1.35 ± 0.14 mmol/L | Reduction in Blood Glucose ([3]; 45 min): 1.92 ± 0.17 mmol/L | Reduction in Blood Glucose ([3]; 60 min): 1.78 ± 0.17 mmol/L

Lys-Gly-Phe-Phe (KGFF-NH2) [Peptide 16]
Activity [1, 4]: inactive | insulin-potentiating activity on in vitro glycogen synthesis (in words) [1]: loss of activity

RG[Cha]F-NH2 [Peptide 20]
Activity [1, 5]: antagonist

[Orn]GFF [Peptide 17]
Activity [1, 4]: inactive | insulin-potentiating activity on in vitro glycogen synthesis (in words) [1]: loss of activity

insulin: exogenous insulin tested alone on hemidiaphragm glycogen synthesis (FIG. 1)
rate of glycogen synthesis ([1]; 0.33 mU/ml insulin alone): 0.52±0.05 μmol/g tissue/hr | rate of glycogen synthesis ([1]; 1 mU/ml insulin alone): 0.60±0.04 μmol/g tissue/hr | rate of glycogen synthesis ([1]; 3.33 mU/ml insulin alone): 1.27±0.06 μmol/g tissue/hr | rate of glycogen synthesis ([1]; 10 mU/ml insulin alone): 1.52±0.07 μmol/g tissue/hr
